One data set relates to Calu-6. The data set can be described thus: Cell proliferation-inhibiting activity (ATP in viable cells, CellTiter-Glo), Calu-6. To be noted: Calu-6, 96 h, read-out: Calu-6 IC50. In kind it is cell-based, human. On the technique in general: ATP-based viability assays read luminescence as a measure of living cells.
A further data set concerns the target T1, MEK1 (Homo sapiens, UniProt Q02750).
T1 construct: purchased Thermo Fisher Scientific Inc. (MEK1, CRAF); Carna Biosciences, Inc. (ERK2)
Kind of data set: MEK1-inhibiting activity, fluorescent polarization method (CRAF/MEK1/ERK2 cascade, IMAP). In kind it is biochemical. The conditions noted are these: Table 3; read-out: MEK1 IC50. The method, then:
The MEK1-inhibiting activity of the compounds listed in Table 3 below were evaluated by the fluorescent polarization method as described below.

Data set [1] can be described thus: Human liver microsome stability. In kind it is in vitro ADME. To be noted: human liver microsomes, pH 7.4. On the technique in general: Liver microsomes are a subcellular fraction often used to study metabolism.
In another data set the target is T2, BRAF (Homo sapiens, UniProt P15056).
T2 construct: purchased Eurofins Genomics KK; (BRAF); Thermo Fisher Scientific Inc. (MEK1)
T2 sequence (P15056 417-766 limits assumed): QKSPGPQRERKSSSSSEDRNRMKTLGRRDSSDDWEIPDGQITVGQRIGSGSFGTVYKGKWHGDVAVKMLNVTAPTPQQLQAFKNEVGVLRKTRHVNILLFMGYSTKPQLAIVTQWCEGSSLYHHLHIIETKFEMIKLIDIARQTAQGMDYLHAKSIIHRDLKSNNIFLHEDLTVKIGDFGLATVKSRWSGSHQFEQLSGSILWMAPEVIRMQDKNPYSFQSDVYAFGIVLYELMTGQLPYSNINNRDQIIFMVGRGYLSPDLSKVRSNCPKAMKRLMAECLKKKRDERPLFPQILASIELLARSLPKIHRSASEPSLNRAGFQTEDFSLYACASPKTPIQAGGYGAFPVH
Kind of data set: BRAF-inhibiting activity, time-resolved fluorescence-fluorescence resonance energy transfer assay. The data set is classed as biochemical. The method, then:
The BRAF-inhibiting activity of the compounds listed in Table 3 below was evaluated by the time-resolved fluorescence-fluorescence resonance energy transfer assay as described below.

In another data set the test system is A549. The data set can be described thus: Cell proliferation-inhibiting activity (ATP in viable cells, CellTiter-Glo), A549. The data set is classed as cell-based, human. The conditions noted are these: A549, 96 h, read-out: A549 IC50.
For a further data set, the system named is NCI-H2122. The data set can be described thus: Cell proliferation-inhibiting activity (ATP in viable cells, CellTiter-Glo), NCI-H2122. In kind it is cell-based, human. The conditions noted are these: NCI-H2122, 96 h, read-out: NCI-H2122 IC50.
Setting [2] is: human lung cancer cells, 4 days.

Read-outs that look alike come from different tables or passages of the source.

T1 sequence (Q02750 whole entry): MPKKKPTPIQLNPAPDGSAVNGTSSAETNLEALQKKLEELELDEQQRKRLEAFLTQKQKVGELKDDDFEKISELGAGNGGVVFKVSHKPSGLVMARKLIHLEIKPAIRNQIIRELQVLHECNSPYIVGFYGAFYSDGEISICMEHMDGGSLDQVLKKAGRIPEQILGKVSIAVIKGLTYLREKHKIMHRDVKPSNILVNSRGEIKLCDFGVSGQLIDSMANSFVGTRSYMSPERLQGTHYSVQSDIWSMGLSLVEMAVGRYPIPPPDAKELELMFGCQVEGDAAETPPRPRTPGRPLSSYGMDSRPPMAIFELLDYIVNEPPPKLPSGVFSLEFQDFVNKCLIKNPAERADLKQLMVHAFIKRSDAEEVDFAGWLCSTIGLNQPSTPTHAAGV

Broadly, the IC50 is the concentration needed to halve the response being measured. For orientation: microsomal CLint means the capacity of the preparation to metabolise the compound, expressed as a volume cleared per time. A low value points to slow turnover. As to `CC(C)CS(=O)(=O)Nc1cccc(Cc2cc(C(N)=O)c(Nc3ccc(I)cc3F)c(F)c2F)c1F` [Compound E-17, 3,4-Difluoro-2-(2-fluoro-4-iodoanilino)-5-[[2-fluoro-3-(2-methylpropylsulfonylamino)phenyl]methyl]benzamide], the IC50 in the data set with Calu-6 (setting [2]) was 110 nM; on MEK1 it was 199 nM; at BRAF (read-out: BRAF IC50; Table 3), 6 nM; in the data set on A549 (setting [2]), 31 nM; with NCI-H2122 (setting [2]), 7 nM. The microsomal CLint at 0.99 µM in data set [1] is 24 µL/min/mg.
Consider `COCC1(S(=O)(=O)Nc2cccc(Cc3cc(C(N)=O)c(Nc4ccc(I)cc4F)c(F)c3F)c2F)CC1` [Compound E-19], for which the IC50 in the data set on Calu-6 (setting [2]) is 87 nM; on MEK1, 332 nM; at BRAF (read-out: BRAF IC50; Table 3) it was 34 nM; in the data set with A549 (setting [2]), 9 nM; in the data set on NCI-H2122 (setting [2]), 9 nM. The molecule further gave a microsomal CLint at 0.99 µM in data set [1] of 115 µL/min/mg.
For `NC(=O)c1cc(Cc2cccc(NS(=O)(=O)C3CC3)c2F)c(F)c(F)c1Nc1ccc(I)cc1F` [Compound E-22, 5-[[3-(Cyclopropylsulfonylamino)-2-fluorophenyl]methyl]-3,4-difluoro-2-(2-fluoro-4-iodoanilino)benzamide], the IC50 was 87 nM in the data set with Calu-6 (setting [2]); 302 nM on MEK1; 4 nM at BRAF (read-out: BRAF IC50; Table 3); 6 nM with A549 (setting [2]); 3 nM with NCI-H2122 (setting [2]). In addition, the microsomal CLint at 0.99 µM in data set [1] amounted to 18 µL/min/mg.
Regarding `NC(=O)c1cc(Cc2cccc(NS(=O)(=O)C3CCOCC3)c2F)c(F)c(F)c1Nc1ccc(I)cc1F` [Compound E-23, 3,4-difluoro-2-(2-fluoro-4-iodoanilino)-5-[[2-fluoro-3-(oxan-4-ylsulfonylamino)phenyl]methyl]benzamide], the IC50 in the data set with Calu-6 (setting [2]) was determined as 47 nM; on MEK1, 61 nM; on BRAF (read-out: BRAF IC50; Table 3), 6 nM; with A549 (setting [2]), 31 nM; with NCI-H2122 (setting [2]), 4 nM. The molecule further had an intrinsic metabolic clearance (microsomal CLint) at 0.99 µM in data set [1] of 98 µL/min/mg.
`CC(C)S(=O)(=O)Nc1cccc(Cc2cc(C(N)=O)c(Nc3ccc(I)cc3F)c(F)c2F)c1F` [Compound E-24, 3,4-Difluoro-2-(2-fluoro-4-iodoanilino)-5-[[2-fluoro-3-(propan-2-ylsulfonylamino)phenyl]methyl]benzamide]: the IC50 is 63 nM with Calu-6 (setting [2]); 189 nM on MEK1; 20 nM at BRAF (read-out: BRAF IC50; Table 3); 26 nM in the data set on A549 (setting [2]); 5 nM in the data set on NCI-H2122 (setting [2]). In addition, the microsomal CLint at 0.99 µM in data set [1] was found to be 10 µL/min/mg.
For the molecule `CCS(=O)(=O)Nc1cccc(Cc2cc(C(N)=O)c(Nc3ccc(I)cc3F)c(F)c2F)c1` [Compound F-2, 5-[[3-(Ethylsulfonylamino)phenyl]methyl]-3,4-difluoro-2-(2-fluoro-4-iodoanilino)benzamide], the IC50 stood at 66 nM with Calu-6 (setting [2]); 383 nM on MEK1; 5 nM at BRAF (read-out: BRAF IC50; Table 3); 8 nM in the data set on A549 (setting [2]); 8 nM with NCI-H2122 (setting [2]). In addition, in data set [1], the microsomal CLint at 0.99 µM was found to be 15 µL/min/mg.
Consider `CNS(=O)(=O)Nc1nccc(Cc2cc(C(=O)NOC)c(Nc3ccc(C4CC4)cc3F)c(F)c2F)c1F` [Compound G-2, 2-(4-Cyclopropyl-2-fluoroanilino)-3,4-difluoro-5-[[3-fluoro-2-(methylsulfamoylamino)pyridin-4-yl]methyl]-N-methoxybenzamide], for which the 50% inhibitory concentration (IC50) with Calu-6 (setting [2]) was 13 nM; at MEK1, 6 nM; on BRAF (read-out: BRAF IC50; Table 3), 3 nM; with A549 (setting [2]), 2 nM; in the data set on NCI-H2122 (setting [2]), 0.4 nM. This molecule also registered a microsomal CLint at 0.99 µM in data set [1] of 31 µL/min/mg.
Regarding `CNS(=O)(=O)Nc1nccc(Cc2cc(C(=O)NOC)c(Nc3ccc(Br)cc3F)c(F)c2F)c1F` [Compound G-3, 2-(4-Bromo-2-fluoroanilino)-3,4-difluoro-5-[[3-fluoro-2-(methylsulfamoylamino)pyridin-4-yl]methyl]-N-methoxybenzamide], the 50% inhibitory concentration (IC50) in the data set on Calu-6 (setting [2]) was 47 nM; on MEK1, 15 nM; at BRAF (read-out: BRAF IC50; Table 3), 5 nM; with A549 (setting [2]), 7 nM; with NCI-H2122 (setting [2]), 2 nM. The same molecule showed a microsomal CLint at 0.99 µM in data set [1] of 29 µL/min/mg.
As to `CNS(=O)(=O)Nc1nccc(Cc2cc(C(N)=O)c(Nc3ccc(SC(F)F)cc3F)c(F)c2F)c1F` [Compound H-1, 2-[4-(difluoromethylsulfanyl)-2-fluoroanilino]-3,4-difluoro-5-[[3-fluoro-2-(methylsulfamoylamino)pyridin-4-yl]methyl]benzamide], the IC50 in the data set on Calu-6 (Homo sapiens) amounted to 21 nM; on MEK1, 7 nM; on BRAF (Table 3; read-out: BRAF IC50) it was 2 nM; in the data set on A549 (Homo sapiens), 9 nM; with NCI-H2122 (Homo sapiens), 5 nM. The microsomal CLint at 0.99 µM in data set [1] turned out to be 39 µL/min/mg.
Turning to `CNS(=O)(=O)Nc1nccc(Oc2cc(C(N)=O)c(Nc3ccc(I)cc3F)c(F)c2F)c1F` [Compound H-4, 3,4-difluoro-2-(2-fluoro-4-iodoanilino)-5-[3-fluoro-2-(methylsulfamoylamino)pyridin-4-yl]oxybenzamide], the IC50 amounted to 6 nM with Calu-6 (setting [2]); 8 nM on MEK1; 12 nM on BRAF (read-out: BRAF IC50; Table 3); 9 nM with A549 (setting [2]); 1 nM in the data set on NCI-H2122 (setting [2]). This molecule had an intrinsic metabolic clearance (microsomal CLint) at 0.99 µM in data set [1] of 11 µL/min/mg.
Regarding `CNS(=O)(=O)Nc1nccc(Cc2cc(C(N)=O)c(Nc3ccc(I)cc3F)cc2F)c1F` [Compound I-1, 4-fluoro-2-(2-fluoro-4-iodoanilino)-5-[[3-fluoro-2-(methylsulfamoylamino)pyridin-4-yl]methyl]benzamide], the IC50 with Calu-6 (setting [2]) is 15 nM; at MEK1, 25 nM; at BRAF (read-out: BRAF IC50; Table 3), 3 nM; in the data set with A549 (setting [2]), 5 nM; with NCI-H2122 (setting [2]), 3 nM. The same molecule gave a microsomal CLint at 0.99 µM in data set [1] of 19 µL/min/mg.
On to `CNS(=O)(=O)Nc1nccc(Cc2cc(C(N)=O)c(Nc3ccc(I)cc3F)n(C)c2=O)c1F` [Compound J-1, 2-(2-fluoro-4-iodoanilino)-5-[[3-fluoro-2-(methylsulfamoylamino)pyridin-4-yl]methyl]-1-methyl-6-oxopyridine-3-carboxamide], for which the IC50 is 29 nM with Calu-6 (setting [2]); 58 nM at MEK1; 4 nM on BRAF (read-out: BRAF IC50; Table 3); 38 nM in the data set with A549 (setting [2]); 8 nM in the data set on NCI-H2122 (setting [2]). The microsomal CLint at 0.99 µM in data set [1] stood at 11 µL/min/mg.
For the molecule `Cn1c(Nc2ccc(C3CC3)cc2F)c(C(N)=O)cc(Cc2ccnc(NS(=O)(=O)NC3CC3)c2F)c1=O` [Compound J-4, 2-(4-Cyclopropyl-2-fluoroanilino)-5-[[2-(cyclopropylsulfamoylamino)-3-fluoropyridin-4-yl]methyl]-1-methyl-6-oxopyridine-3-carboxamide], the IC50 in the data set on Calu-6 (Homo sapiens) was > 2000 nM; at MEK1 it was 877 nM; at BRAF (Table 3; read-out: BRAF IC50), 14 nM; with A549 (Homo sapiens) it was > 2000 nM; in the data set on NCI-H2122 (Homo sapiens) it was 1060 nM. In addition, the microsomal CLint at 0.99 µM in data set [1] was found to be 67 µL/min/mg.
`CNS(=O)(=O)Nc1nccc(Cc2cc(C(=O)NC3CC3)c(Nc3ccc(I)cc3F)n(C)c2=O)c1F` [Compound J-5, N-cyclopropyl-2-(2-fluoro-4-iodoanilino)-5-[[3-fluoro-2-(methylsulfamoylamino)pyridin-4-yl]methyl]-1-methyl-6-oxopyridine-3-carbo xamide]: the IC50 with Calu-6 (setting [2]) was 29 nM; on MEK1, 117 nM; on BRAF (read-out: BRAF IC50; Table 3) it was 8 nM; in the data set with A549 (setting [2]), 7 nM; in the data set with NCI-H2122 (setting [2]), 4 nM. Moreover, in data set [1], the microsomal CLint at 0.99 µM came to 20 µL/min/mg.
As to `Cn1c(Nc2ccc(I)cc2F)c(C(=O)NC2CC2)cc(Cc2ccnc(NS(=O)(=O)NC3CC3)c2F)c1=O` [Compound J-6, N-Cyclopropyl-5-[[2-(cyclopropylsulfamoylamino)-3-fluoropyridin-4-yl]methyl]-2-(2-fluoro-4-iodoanilino)-1-methyl-6-oxopyridine-3-carboxamide], the IC50 in the data set with Calu-6 (setting [2]) came out at 27 nM; at MEK1, 86 nM; on BRAF (read-out: BRAF IC50; Table 3), 7 nM; with A549 (setting [2]), 14 nM; in the data set on NCI-H2122 (setting [2]), 7 nM. The same molecule gave a microsomal CLint at 0.99 µM in data set [1] of 45 µL/min/mg.
Take `CNS(=O)(=O)Nc1nccc(Cc2cc(C(=O)NOC)c(Nc3ccc(I)cc3F)n(C)c2=O)c1F` [Compound J-8, 2-(2-fluoro-4-iodoanilino)-5-[[3-fluoro-2-(methylsulfamoylamino)pyridin-4-yl]methyl]-N-methoxy-1-methyl-6-oxopyridine-3-carboxamide]: the IC50 turned out to be 77 nM with Calu-6 (setting [2]); 15 nM at MEK1; 2 nM on BRAF (read-out: BRAF IC50; Table 3); 24 nM with A549 (setting [2]); 5 nM in the data set on NCI-H2122 (setting [2]). In data set [1], this molecule came in with a microsomal CLint at 0.99 µM of 3 µL/min/mg.
Regarding `CNS(=O)(=O)Nc1nccc(Cc2cc(C(=O)NOC(C)(C)C)c(Nc3ccc(I)cc3F)n(C)c2=O)c1F` [Compound J-10, 2-(2-fluoro-4-iodoanilino)-5-[[3-fluoro-2-(methylsulfamoylamino)pyridin-4-yl]methyl]-1-methyl-N-[(2-methylpropan-2-yl)oxy]-6-oxop yridine-3-carboxamide], the IC50 came to 13 nM with Calu-6 (setting [2]); 42 nM at MEK1; 10 nM at BRAF (read-out: BRAF IC50; Table 3); 8 nM with A549 (setting [2]); 2 nM in the data set on NCI-H2122 (setting [2]). In data set [1], this molecule yielded a microsomal CLint at 0.99 µM of 28 µL/min/mg.

Source of the values: patent EP4725941A1, “ARYLAMIDE DERIVATIVE HAVING ANTITUMOR ACTIVITY” (priority 2020, dated 2021).
